What follows are molecules tested on RKO p21 uninduced (proliferating) colon adenocarcinoma cells (assay: Alamar Blue cell viability assay, RKO p21 uninduced (proliferating)). Conditions: Homo sapiens, Table B3, anti-proliferative/cytotoxic activity, 72 hours, read-out: −log EC50 RKO p21 uninduced (proliferating) (converted).
Type: cell-based
Outline: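 RKO p21 or p27 subclones grown without Ponasterone A, i.e. proliferating, exposed 24 h after seeding to semi-log compound dilutions in DMEM/10% FCS (1% DMSO controls) for 72 h at 37° C. Alamar Blue fluorescence (544/590 nm) read relative to untreated cells; EC50 from dose-response curves, given as −log EC50 (mol/l).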
Work on `CCN(CCCN1C(=O)N2[C@H](c3cccc(O)c3)c3[nH]c4cc(F)c(Cl)cc4c3C[C@@]2(C)C1=O)CCOC` (racemic) [Example 471, (3aSR,10RS)-6-Chloro-2-{3-[ethyl-(2-methoxy-ethyl)-amino]-propyl}-7-fluoro-10-(3-hydroxy-phenyl)-3a-methyl-3a,4,9,10-tetrahydro-2,9,10a-triaza-cyclopenta[b]fluorene-1,3-dione] yielded an EC50 of 39.8 to 251 nM. For `C[C@@]12Cc3c([nH]c4cc(F)c(Cl)cc34)[C@@H](c3cccc(O)c3)N1C(=O)N(CCCN1CCCCC1)C2=O` (racemic) [Example 478, (3aSR,10RS)-6-Chloro-7-fluoro-10-(3-hydroxy-phenyl)-3a-methyl-2-(3-piperidin-1-yl-propyl)-3a,4,9,10-tetrahydro-2,9,10a-triaza-cyclopenta[b]fluorene-1,3-dione], the EC50 was ≤ 39.8 nM. `C[C@@]12Cc3c([nH]c4ccc(Br)cc34)[C@@H](c3cccc(O)c3)N1C(=O)N(CCCN1CCCCC1)C2=O` (racemic) [Example 373, (3aSR,10RS)-6-Bromo-10-(3-hydroxy-phenyl)-3a-methyl-2-(3-piperidin-1-yl-propyl)-3a,4,9,10-tetrahydro-2,9,10a-triaza-cyclopenta[b]fluorene-1,3-dione] was tested, and the EC50 was ≤ 39.8 nM. Work on `CCOc1ccc2[nH]c3c(c2c1)C[C@@]1(C)C(=O)N(CCCN(C)CCO)C(=O)N1[C@@H]3c1cccc(O)c1` (racemic) [Example 193, (3aSR,10RS)-6-Ethoxy-2-{3-[(2-hydrox-ethyl)-methyl-amino]-propyl}-10-(3-hydroxy-phenyl)-3a-methyl-3a,4,9,10-tetrahydro-2,9,10a-triaza-cyclopenta[b]fluorene-1,3-dione] yielded an EC50 of 39.8 to 251 nM. Work on `C[C@@]12Cc3c([nH]c4ccc(OC(F)F)cc34)[C@@H](c3cccc(O)c3)N1C(=O)N(CCNC1CC1)C2=O` (racemic) [Example 286, (3aSR,10RS)-2-(2-Cyclopropylamino-ethyl)-6-(1,1-difluoro-methoxy)-10-(3-hydroxy-phenyl)-3a-methyl-3a,4,9,10-tetrahydro-2,9,10a-triaza-cyclpenta[b]fluorene-1,3-dione] yielded an EC50 of 39.8 to 251 nM. `CCOc1ccc2[nH]c3c(c2c1)C[C@@]1(C)C(=O)N(CCCN(CC)CCO)C(=O)N1[C@@H]3c1cccc(O)c1` (racemic) [Example 194, (3aSR,10RS)-6-Ethoxy-2-{3-[ethyl-(2-hydroxy-ethyl)-amino]-propyl}-10-(3-hydroxy-phenyl)-3a-methyl-3a,4,9,10-tetrahydro-2,9,10a-triaza-cyclopenta[b]fluorene-1,3-dione] gave an EC50 of 39.8 to 251 nM. `CCOc1ccc2[nH]c3c(c2c1)C[C@@]1(C)C(=O)N(CCCNCC2CC2)C(=O)N1[C@@H]3c1cccc(O)c1` (racemic) [Example 188, (3aSR,10RS)-2-[3-(Cyclopropylmethyl-amino)-propyl]-6-ethoxy-10-(3-hydroxy-phenyl)-3a-methyl-3a,4,9,10-tetrahydro-2,9,10a-triaza-cyclopenta[b]fluorene-1,3-dione] gave an EC50 of 39.8 to 251 nM. `C[C@@]12Cc3c([nH]c4ccc(OC(F)F)cc34)[C@@H](c3cccc(O)c3)N1C(=O)N(CCNCCO)C2=O` (racemic) [Example 285, (3aSR,10RS)-6-(1,1-Difluoro-methoxy)-2-[2-(2-hydroxy-ethylamino)-ethyl]-10-(3-hydroxy-phenyl)-3a-methyl-3a,4,9,10-tetrahydro-2,9,10a-triaza-cyclopenta[b]fluorene-1,3-dione] was tested, and the EC50 was 39.8 to 251 nM. For `CCN(CC)CCCN1C(=O)N2[C@H](c3cccc(O)c3)c3[nH]c4cc(F)c(OC)cc4c3C[C@@]2(C)C1=O` (racemic) [Example 313, (3aSR,10RS)-2-(3-Diethylamino-propyl)-7-fluoro-10-(3-hydroxy-phenyl)-6-methoxy-3a-methyl-3a,4,9,10-tetrahydro-2,9,10a-triaza-cyclopenta[b]fluorene-1,3-dione], the EC50 was 39.8 to 251 nM. `CCOc1ccc2[nH]c3c(c2c1)C[C@@]1(C)C(=O)N(CCCN(CC)CCOC)C(=O)N1[C@@H]3c1cccc(O)c1` (racemic) [Example 195, (3aSR,10RS)-6-Ethoxy-2-{3-[ethyl-(2-methoxy-ethyl)-amino]-propyl}-10-(3-hydroxy-phenyl)-3a-methyl-3a,4,9,10-tetrahydro-2,9,10a-triaza-cyclopenta[b]fluorene-1,3-dione] gave an EC50 of 39.8 to 251 nM. With `CC(C)CNCCCN1C(=O)N2[C@H](c3cccc(O)c3)c3[nH]c4ccc(Br)cc4c3C[C@@]2(C)C1=O` (racemic) [Example 213, (3aSR,10RS)-6-Bromo-10-(3-hydroxy-phenyl)-2-(3-isobutylamino-propyl)-3a-methyl-3a,4,9,10-tetrahydro-2,9,10a-triaza-cyclopenta[b]fluorene-1,3-dione] the EC50 was ≤ 39.8 nM. `C[C@@]12Cc3c([nH]c4cc(F)c(Cl)cc34)[C@@H](c3cccc(O)c3)N1C(=O)N(CCN1CCCCC1)C2=O` (racemic) [Example 356, (3aSR,10RS)-6-Chloro-7-fluoro-10-(3-hydroxy-phenyl)-3a-methyl-2-(2-piperidin-1-yl-ethyl)-3a,4,9,10-tetrahydro-2,9,10a-triaza-cyclopenta[b]fluorene-1,3-dione] showed an EC50 of 39.8 to 251 nM. For `COc1cc2c3c([nH]c2cc1F)[C@@H](c1cccc(O)c1)N1C(=O)N(CCNC(C)(C)C)C(=O)[C@]1(C)C3` (racemic) [Example 256, (3aSR,10RS)-2-(2-tert-Butylamino-ethyl)-7-fluoro-10-(3-hydroxy-phenyl)-6-methoxy-3a-methyl-3a,4,9,10-tetrahydro-2,9,10a-triaza-cyclopenta[b]fluorene-1,3-dione], the EC50 was ≤ 39.8 nM. In the case of `C[C@@]12Cc3c([nH]c4cc(F)c(Cl)cc34)[C@@H](c3cccc(O)c3)N1C(=O)N(CCCNCCO)C2=O` (racemic) [Example 461, (3aSR,10RS)-6-Chloro-7-fluoro-2-[3-(2-hydroxy-ethylamino)-propyl]-10-(3-hydroxy-phenyl)-3a-methyl-3a,4,9,10-tetrahydro-2,9,10a-triaza-cyclopenta[b]fluorene-1,3-dione], the EC50 is reported as 39.8 to 251 nM. `COc1ccc2[nH]c3c(c2c1F)C[C@@]1(C)C(=O)N(CCNCC2CC2)C(=O)N1[C@@H]3c1cccc(O)c1` (racemic) [Example 410, (3aSR,10RS)-2-[2-(Cyclopropylmethyl-amino)-ethyl]-5-fluoro-10-(3-hydroxy-phenyl)-6-methoxy-3a-methyl-3a,4,9,10-tetrahydro-2,9,10a-triaza-cyclopenta[b]fluorene-1,3-dione] was tested, and the EC50 was 39.8 to 251 nM. `COc1cc2c3c([nH]c2cc1F)[C@@H](c1cccc(O)c1)N1C(=O)N(CCCN(C)C)C(=O)[C@]1(C)C3` (racemic) [Example 310, (3aSR,10RS)-2-(3-Dimethylamino-propyl)-7-fluoro-10-(3-hydroxy-phenyl)-6-methoxy-3a-methyl-3a,4,9,10-tetrahydro-2,9,10a-triaza-cyclopenta[b]fluorene-1,3-dione] showed an EC50 of 39.8 to 251 nM. In the case of `CN(CCO)CCCN1C(=O)N2[C@H](c3cccc(O)c3)c3[nH]c4cc(F)c(Cl)cc4c3C[C@@]2(C)C1=O` (racemic) [Example 468, (3aSR,10RS)-6-Chloro-7-fluoro-2-{3-[(2-hydroxy-ethyl)-methyl-amino]-propyl}-10-(3-hydroxy-phenyl)-3a-methyl-3a,4,9,10-tetrahydro-2,9,10a-triaza-cyclopenta[b]fluorene-1,3-dione], the EC50 is reported as ≤ 39.8 nM. Work on `C[C@@]12Cc3c([nH]c4ccc(OC(F)F)cc34)[C@@H](c3cccc(O)c3)N1C(=O)N(CCN1CCCCCC1)C2=O` (racemic) [Example 282, (3aSR,10RS)-2-(2-Azepan-1-yl-ethyl)-6-(1,1-difluoro-methoxy)-10-(3-hydroxy-phenyl)-3a-methyl-3a,4,9,10-tetrahydro-2,9,10a-triaza-cyclopenta[b]fluorene-1,3-dione] yielded an EC50 of 39.8 to 251 nM. `CC1CCN(CCCN2C(=O)N3[C@H](c4cccc(O)c4)c4[nH]c5ccc(OC(F)F)cc5c4C[C@@]3(C)C2=O)CC1` (racemic) [Example 244, (3aSR,10RS)-6-(1,1-Difluoro-methoxy)-10-(3-hydroxy-phenyl)-3a-methyl-2-[3-(4-methyl-piperidin-1-yl)-propyl]-3a,4,9,10-tetrahydro-2,9,10a-triaza-cyclopenta[b]fluorene-1,3-dione] was tested, and the EC50 was 39.8 to 251 nM. In the case of `C[C@@]12Cc3c([nH]c4ccc(Br)cc34)[C@@H](c3cccc(O)c3)N1C(=O)N(CCCNC1CCC1)C2=O` (racemic) [Example 369, (3aSR,10RS)-6-Bromo-2-(3-cyclobutylamino-propyl)-10-(3-hydroxy-phenyl)-3a-methyl-3a,4,9,10-tetrahydro-2,9,10a-triaza-cyclopenta[b]fluorene-1,3-dione], the EC50 is reported as ≤ 39.8 nM. `CCOc1ccc2[nH]c3c(c2c1)C[C@@]1(C)C(=O)N(CCNCCOC)C(=O)N1[C@@H]3c1cccc(O)c1` (racemic) [Example 160, (3aSR,10RS)-6-Ethoxy-10-(3-hydroxy-phenyl)-2-[2-(2-methoxy-ethylamino)-ethyl]-3a-methyl-3a,4,9,10-tetrahydro-2,9,10a-triaza-cyclopenta[b]fluorene-1,3-dione] was tested, and the EC50 was 39.8 to 251 nM. `CC(=O)N1CCN(CCCN2C(=O)N3[C@H](c4cccc(O)c4)c4[nH]c5ccc(Br)cc5c4C[C@@]3(C)C2=O)CC1` (racemic) [Example 220, (3aSR,10RS)-2-[3-(4-Acetyl-piperazin-1-yl)-propyl]-6-bromo-10-(3-hydroxy-phenyl)-3a-methyl-3a,4,9,10-tetrahydro-2,9,10a-triaza-cyclopenta[b]fluorene-1,3-dione] was tested, and the EC50 was 39.8 to 251 nM. `CCOc1ccc2[nH]c3c(c2c1)C[C@@]1(C)C(=O)N(CCNCC(C)C)C(=O)N1[C@@H]3c1cccc(O)c1` (racemic) [Example 153, (3aSR,10RS)-6-Ethoxy-10-(3-hydroxy-phenyl)-2-(2-isobutylamino-ethyl)-3a-methyl-3a,4,9,10-tetrahydro-2,9,10a-triaza-cyclopenta[b]fluorene-1,3-dione] was tested, and the EC50 was ≤ 39.8 nM.
